# Patent US11986512B2, “Compositions and methods for cancer therapy” (Thetis Pharmaceuticals LLC, priority 2021, dated 2024)
# Assays:
# Type in all cases: in vivo, C57BL/6J male mice
# Panc2-H7 cells = assay: Panc2-H7 model, daily (QD) versus weekly (Q7D) dosing; details: SC
# Method: (§1) A representative compound of Formula IV, RvE1 magnesium dilysinate, was tested for efficacy in several mouse models of cancer, including the Panc2-H7 model of pancreatic cancer, the Lewis lung carcinoma (LLC) model, the MC38 model of colorectal cancer, and the B16F10 model of melanoma. These models are well established, highly tumorigenic syngeneic models in which murine cancer cell lines are injected subcutaneously (SC) into the dorsum of C57BL/6J mice. If left untreated, these tumors grow rapidly and lead to death or euthanasia, per protocol. As detailed below in Examples 1-9 and the accompanying figures, bis RvE1 Mg-di-lysinate (Compound 1) was unexpectedly effective as an anti-cancer agent in each of these model systems when administered in a less than daily (LTD) dosing regimen. […] Without being bound by any theory, the surprising efficacy of LTD dosing of resolvins in the cancer model systems described here may be the result of durable effects on the tumor microenvironment including changes in immune cell phenotype, vascularization, stromal phenotype, and antigen presentation, as well as durable effects on the T-cell compartment such as T-cell priming and increased tumor-infiltrating lymphocytes.
# Based on the previous findings in the MC38 colorectal cancer model with less than daily (LTD) dosing, a study in the Panc2-H7 model was conducted to assess the efficacy of LTD dosing of bis RvE1 Mg-di-lysinate in a different tumor model. A total of forty (40) C57BL/6J male mice were injected subcutaneously with 1×10e6 living Panc2-H7 cells. Once tumors reached 160-320 mm^3 in size, the mice were randomized (n=8 per group) to treatment with vehicle or SC injection with bis RvE1 Mg-di-lysinate at 30 ug/kg and 300 ug/kg (QD, Q7D).
# LLC cells = assay: Lewis lung carcinoma (LLC) model, with and without anti-PD1 or cisplatin; details: P<0.05
# Method: as §1
# To expand our understanding of bis RvE1 Mg-di-lysinate as a cancer therapy that could be used in combination with other cancer therapies including immune checkpoint inhibitors, bis RvE1 Mg-di-lysinate monotherapy and in combination either anti-PD1 or cisplatin was investigated in the LLC model of non-small cell lung cancer, which is a model known to unresponsive to anti-PD1 therapy and moderately responsive to cisplatin. Yu et al., J Exp Clin Cancer Res. 2010; 29(1):46; Lechner et al., J Immunother. 2013; 36(9):477-489. A total of forty (40) C57BL/6J male mice were injected subcutaneously with 1×10e6 living LLC cells. […] In addition, bis RvE1 Mg-di-lysinate was evaluated in combination with anti-PD1 or cisplatin. […]
# B16F10 cells = assay: B16F10 model of melanoma, with anti-PD1 and anti-CTLA4
# Method: as §1
# Based on the finding of increased efficacy with bis RvE1 Mg-di-lysinate administered in combination with anti-PD1 monotherapy and anti-CTLA4 monotherapy, a study was conducted to investigate the efficacy of less than daily (LTD) bis RvE1 Mg-di-lysinate combined with both anti-PD1 and anti-CTLA4 in the B16F10 model of melanoma. […] See Perez-Ruiz E, et al. Nature. 2019; 569(7756):428-432. Thus, this initial study with ICI dual therapy was designed to investigate whether use of bis RvE1 Mg-di-lysinate with the ICI dual therapy could enhance efficacy, which may offer the opportunity to reduce the dose of the ICI components of the regimen without loss of efficacy. A total of sixty-four (64) C57BL/6J male mice were injected subcutaneously with 1×10e6 living B16F10 cells in the dorsum. When tumors reached a mean tumor volume of approximately 130 mme3, the mice were randomized (n=8 per group) to treatment with vehicle, bis RvE1 Mg-di-lysinate (300 ug/kg, SC, Q6D), anti-PD1 (8 mg/kg, i.p., Q3D) or anti-CTLA-4 (4 mg/kg, Q3D). The double combinations of bis RvE1 Mg-di-lysinate and anti-CTLA-4 or anti-PD1, and anti-PD1 with anti-CTLA-4, as well as the triple combination of bis RvE1 Mg-di-lysinate, anti-CTLA-4 and anti-PD1 were also investigated. All combination arms used the same dosing regimens as the individual monotherapies. The mice were sacrificed on day 12 per protocol when the mean tumor of the vehicle group reached approximately 2,000 mm^3. […] This is clinically relevant for melanoma patients receiving anti-PD1 monotherapy, which is used when the side effects of ICI dual therapy are not tolerated.
# KPC cells = assay: Orthotopic KPC model of pancreatic cancer, survival
# Method: To expand our understanding of less than daily (LTD) dosing of bis RvE1 Mg-di-lysinate as a cancer therapy that could be used in combination with chemotherapy, bis RvE1 Mg-di-lysinate (Compound 1) was investigated in the orthotopic KPC model of pancreatic cancer. A total of fifteen (15) C57BL/6J male mice were implanted orthotopically with 5×10e5 living KPC cells into the pancreas. The mice were randomized (n=7-8) to treatment with bis RvE1 Mg-di-lysinate (300 ug/kg, SC, Q6D) with or without gemcitabine (50 mg/kg, IP, Q3D, up to 6 doses) one day after tumor cell implantation.
# [1] = triple therapy (bis RvE1 Mg-di-lysinate + anti-CTLA-4 + anti-PD1), p<0.001
smiles,measurement,setting,value
CC[C@@H](O)/C=C/C=C\C[C@@H](O)/C=C/C=C/C=C\[C@@H](O)CCCC(=O)O [bis RvE1 Mg-di-lysinate],tumor volume (Day 20 vs Day 0),"Panc2-H7 cells; 30 ug/kg, Q7D",inhibition relative to placebo control
same,tumor volume (Day 20 vs Day 0),"Panc2-H7 cells; 30 ug/kg, QD",inhibition relative to placebo control
same,tumor volume (Day 20 vs Day 0),"Panc2-H7 cells; 300 ug/kg, Q7D, P<0.05 vs placebo control",greatest inhibition
same,tumor volume (Day 20 vs Day 0),"Panc2-H7 cells; 300 ug/kg, QD",inhibition relative to placebo control
same,tumor volume (Day 11 vs Day 0),LLC cells; bis RvE1 Mg-di-lysinate 30 ug/kg SC QD in combination with anti-PD1 8 mg/kg IP Q3D,reduced tumor volume compared to placebo and cisplatin and anti-PD1 alone
same,tumor volume (Day 11 vs Day 0),LLC cells; bis RvE1 Mg-di-lysinate 30 ug/kg SC QD in combination with cisplatin 5 mg/kg i.p Q5D,reduced tumor volume compared to placebo and cisplatin and anti-PD1 alone
same,inhibition compared to anti-PD1 monotherapy,"B16F10 cells; double combination of bis RvE1 Mg-di-lysinate 300 ug/kg SC Q6D and anti-PD1 8 mg/kg i.p. Q3D, p<0.05",54%
same,efficacy of LTD dosing,"B16F10 cells; monotherapy, 300 ug/kg, SC, Q6D",effective as monotherapy
same,tumor growth inhibition compared to anti-CTLA-4 monotherapy,B16F10 cells; [1],71%
same,tumor growth inhibition compared to anti-PD1 monotherapy,B16F10 cells; [1],87%
same,"inhibition, tumor volume at day 12 divided by tumor volume at day 0","B16F10 cells; triple therapy: bis RvE1 Mg-di-lysinate 300 ug/kg SC Q6D + anti-CTLA-4 4 mg/kg Q3D + anti-PD1 8 mg/kg i.p. Q3D, p<0.05",67%
same,mean survival,KPC cells; bis RvE1 Mg-di-lysinate 300 ug/kg SC Q6D in combination with gemcitabine 50 mg/kg IP Q3D up to 6 doses,129 days
same,mice alive as of the last observation (day 250),"KPC cells; bis RvE1 Mg-di-lysinate + gemcitabine combination group, three of the seven mice",43%
same,"increase in survival, combination versus gemcitabine monotherapy","KPC cells; bis RvE1 Mg-di-lysinate + gemcitabine, p<0.05",four-fold increase in survival
